From patent US7265130B2, “NPY Y5 antagonist” (Shionogi & Co., Ltd., priority 1999, dated 2007)

Legend:
human NPY Y5 receptor [1] = biological target: T1, human NPY Y5 receptor (Homo sapiens, UniProt Q15761); assay: Affinity for NPY Y5 receptor ([125I] peptide YY binding, CHO cell membranes); details: inhibition of specific [125I] peptide YY binding, membranes of CHO cells expressing NPY Y5 receptor
T1 construct: expressed in transfected cells
T1 sequence (Q15761 1-445): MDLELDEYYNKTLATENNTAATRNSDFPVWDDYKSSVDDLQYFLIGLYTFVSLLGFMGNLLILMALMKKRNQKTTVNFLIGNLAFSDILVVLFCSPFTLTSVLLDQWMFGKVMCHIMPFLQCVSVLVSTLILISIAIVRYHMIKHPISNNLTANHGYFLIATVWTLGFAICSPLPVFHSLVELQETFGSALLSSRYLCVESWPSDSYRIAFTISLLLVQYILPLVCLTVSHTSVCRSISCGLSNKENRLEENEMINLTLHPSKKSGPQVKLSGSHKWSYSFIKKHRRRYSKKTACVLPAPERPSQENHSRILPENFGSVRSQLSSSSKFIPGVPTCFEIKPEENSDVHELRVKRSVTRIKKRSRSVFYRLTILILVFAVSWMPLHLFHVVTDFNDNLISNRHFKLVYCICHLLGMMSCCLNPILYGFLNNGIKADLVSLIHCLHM
Excerpt: Experiment 1 Affinity for NPY Y5 Receptor
cDNA sequence encoding a human NPY Y5 receptor (WO096/16542) was cloned in the expression vector pME18S (Takebe et al. Mol. Cell. Biol. 8, 8957). The obtained expression vector was transfected into a host CHO cells by using a Lipofect AMINE reagent (Trademark, Gibco BRL Co., Ltd.) according to an instruction protocol to obtain the cells that stably express NPY Y5 receptor.
The membranes prepared from the above CHO cells expressing NPY Y5 receptor, the compound of the present invention and 30,000 cpm [^125I] peptide YY (60 pM of final concentration: Amersham) were incubated in the assay buffer (20 mM HEPES-Hanks buffer containing 0.1% bovine serum albumin, pH 7.4) at 25° C. for 2 hours, and then the mixture was filtered with a glassfilter GF/C treated with polyethyleneimine. After the glassfilter was washed with 50 mM Tris-HCl buffer (pH 7.4), the radioactivity on the filter was measured with a gamma counter. The non-specific binding was detected in the presence of 200 nM of peptide YY. The 50% inhibitory concentration of the test compound against the specific peptide YY binding (IC50 value) was calculated (Inui, A. et al. Endocrinology 131, 2090-2096 (1992)).

human NPY Y5 receptor [2] = biological target: T1, human NPY Y5 receptor; assay: cAMP production inhibitory activity in CHO cells; assay type: cell-based; details: against 50 nM NPY inhibition of forskolin stimulated cAMP, CHO cells expressing human NPY Y5 receptor
Description: Experiment 2 cAMP production inhibitory activity in CHO cells
After CHO cells expressing human NPY Y5 receptor were incubated in the presence of 2.5 mM isobutylmethylxanthine (SIGMA) at 37° C. for 20 min., the compound of the present invention was added and incubated for 5 min. Then, 50 nM NPY and 10 μM forskolin (SIGMA) were added to the cells and incubated for 30 min. After the reaction was terminated by adding 1N HCl, the amount of cAMP in the supernatant was measured with EIA kit (Amersham LIFE SCIENCE).

Compound	IC50 (human NPY Y5 receptor [1])	IC50 (human NPY Y5 receptor [2])
COc1ccc(Cl)cc1NC(=O)C1CCC(NS(=O)(=O)C(C)(C)C)CC1 (stereo not shown) [Ia-35]	1.8 nM	–
CC(C)S(=O)(=O)N[C@H]1CC[C@H](C(=O)Nc2ccc3oc(=O)ccc3c2)CC1 [Ia-76]	2.2 nM	–
CC(C)(C)S(=O)(=O)N[C@H]1CC[C@H](C(=O)Nc2ccc3c(c2)C(=O)N(c2ccccc2)C3=O)CC1 [Ia-79]	0.82 nM	–
CC(C)S(=O)(=O)NC1CCC(C(=O)Nc2ccc(-c3ncco3)cc2)CC1 (stereo not shown) [Ia-184]	0.38 nM	–
CC(C)(C)S(=O)(=O)NC1CCC(C(=O)Nc2cccc(-c3ccco3)c2)CC1 (stereo not shown) [Ia-209]	0.55 nM	–
Cc1cc(=O)oc2cc(NC(=O)[C@H]3CC[C@H](NS(=O)(=O)C(C)C)CC3)ccc12 [Ia-227]	0.59 nM	–
Cc1cc(=O)oc2cc(NC(=O)CCCCNS(=O)(=O)C(C)(C)C)ccc12 [Ia-228]	0.96 nM	–
Cc1cc(=O)oc2cc(NC(=O)CCCCNS(=O)(=O)C(C)C)ccc12 [Ia-229]	1.9 nM	–
CC(C)CN1C(=O)c2ccc(NC(=O)[C@H]3CC[C@H](NS(=O)(=O)C(C)(C)C)CC3)cc2C1=O [Ia-230]	0.32 nM	–
CC(C)CN1C(=O)c2ccc(NC(=O)[C@H]3CC[C@H](NS(=O)(=O)C(C)C)CC3)cc2C1=O [Ia-231]	0.29 nM	–
CC(C)CN1C(=O)c2ccc(NC(=O)CCCCNS(=O)(=O)C(C)(C)C)cc2C1=O [Ia-232]	0.7 nM	–
CC(C)CN1C(=O)c2ccc(NC(=O)CCCCNS(=O)(=O)C(C)C)cc2C1=O [Ia-233]	0.63 nM	–
CC(C)(C)S(=O)(=O)NC1CCC(C(=O)Nc2nc3ccccc3s2)CC1 (stereo not shown) [Ia-235]	5.5 nM	–
CC(C)(C)S(=O)(=O)NC1CCN(C(=O)Nc2ccc(C(F)(F)F)cn2)CC1 [Ia-241]	1.9 nM	–
Cc1cc(C(=O)NC(C)C)ccc1NC(=O)N1CCC(NS(=O)(=O)C(C)(C)C)CC1 [Ia-243]	1.3 nM	–
CC(C)(C)S(=O)(=O)NC1CCC(C(=O)Nc2ccc3occc3c2)CC1 (stereo not shown) [Ia-250]	1.9 nM	–
CC(C)S(=O)(=O)NC1CCC(C(=O)Nc2ccc(OC(C)(C)C)cc2)CC1 (stereo not shown) [Ia-252]	1.2 nM	–
CC(C)(C)Oc1ccc(NC(=O)CCCCNS(=O)(=O)C(C)(C)C)cc1 [Ia-253]	0.53 nM	–
CC(C)(C)Oc1ccc(NC(=O)N2CCC(NS(=O)(=O)C(C)(C)C)CC2)cc1 [Ia-254]	2 nM	–
CC(C)(C)S(=O)(=O)NCCCCC(=O)Nc1ccc(N2CCCS2(=O)=O)cc1 [Ia-255]	3.2 nM	–
CC(C)(C)S(=O)(=O)NC1CCN(C(=O)Nc2ccc(N3CCCS3(=O)=O)cc2)CC1 [Ia-256]	5.7 nM	–
CC(C)(C)S(=O)(=O)NCCCCC(=O)Nc1ccc(OC2CCOCC2)cc1 [Ia-257]	8.6 nM	–
CC(C)S(=O)(=O)NC1CCC(C(=O)Nc2ccc(OC3CCOCC3)cc2)CC1 (stereo not shown) [Ia-258]	1.8 nM	–

The remaining lines, values ahead:

IC50 (human NPY Y5 receptor [1])	IC50 (human NPY Y5 receptor [2])	Compound
7.5 nM	72 nM	CCCCc1ccc(C(=O)Nc2ccc(NS(=O)(=O)C(C)C)cc2)cc1 [Compound I-2]
3 nM	< 10 nM	CCCCc1ccc(NC(=O)CCCCNS(=O)(=O)C(C)C)cc1 [Compound I-7]
1.3 nM	5 nM	CCCCc1ccc(NC(=O)CCCCNS(=O)(=O)C(C)(C)C)cc1 [Compound I-11]
4.4 nM	29 nM	CCCCc1ccc(NC(=O)C2CCC(NS(=O)(=O)C(C)(C)C)CC2)cc1 (stereo not shown) [Compound I-18]
7 nM	21 nM	CCCCc1ccc(C(=O)NCCCCNS(=O)(=O)C(C)(C)C)cc1 [Compound I-20]
8.6 nM	51 nM	CCCCc1ccc(NC(=O)C2CCC(NS(=O)(=O)C(C)(C)C)CC2)cc1 (stereo not shown) [Compound I-22]
9.6 nM	71 nM	CCCCc1ccc(NC(=O)C2CCC(CNS(=O)(=O)C(C)(C)C)CC2)cc1 (stereo not shown) [Compound I-24]
0.6 nM	2.6 nM	CCCCc1ccc(NC(=O)C2CCC(NS(=O)(=O)C(C)(C)C)CC2)cc1 (stereo not shown) [Compound I-25]
1 nM	13.4 nM	CCN(CC)c1ccc(NC(=O)C2CCC(NS(=O)(=O)C(C)(C)C)CC2)cc1 (stereo not shown) [Compound I-44]
0.3 nM	8.4 nM	CC(C)(C)S(=O)(=O)NC1CCC(C(=O)Nc2ccc(Oc3ccccc3)cc2)CC1 (stereo not shown) [Compound I-50]
4.1 nM	21 nM	CC(C)(C)S(=O)(=O)NC1CCC(C(=O)Nc2ccc(N3CCN(c4ccccc4)CC3)cc2)CC1 (stereo not shown) [Compound I-53]
9 nM	40 nM	CC(C)(C)S(=O)(=O)NC1CCC(C(=O)Nc2ccc(N3CCN(c4ncccn4)CC3)cc2)CC1 (stereo not shown) [Compound I-55]
4.8 nM	47 nM	CCOC(=O)C1CCN(c2ccc(NC(=O)C3CCC(NS(=O)(=O)C(C)(C)C)CC3)cc2)CC1 (stereo not shown) [Compound I-57]
0.69 nM	18 nM	CC(C)(C)S(=O)(=O)NC1CCC(C(=O)Nc2ccc(N3CCc4ccccc4C3)cc2)CC1 (stereo not shown) [Compound I-60]
0.58 nM	16 nM	CC(C)(C)S(=O)(=O)NC1CCC(C(=O)Nc2ccc(-n3cnc(Cl)c3Cl)cc2)CC1 (stereo not shown) [Compound I-62]
1.8 nM	72 nM	CC(C)(C)S(=O)(=O)NC1CCC(C(=O)Nc2ccc(-c3ccc(N4CCCCC4)cc3)cc2)CC1 (stereo not shown) [Compound I-65]
2 nM	17 nM	CC(=O)Nc1cccc(NC(=O)C2CCC(NS(=O)(=O)C(C)(C)C)CC2)c1 (stereo not shown) [Compound I-67]
0.55 nM	3.4 nM	CC(C)(C)S(=O)(=O)NC1CCC(C(=O)Nc2ccc(N3CCc4ccccc43)cc2)CC1 (stereo not shown) [Compound I-75]

IC50 (human NPY Y5 receptor [1])	IC50 (human NPY Y5 receptor [2])	Compound
0.61 nM	5.5 nM	CC(C)(C)S(=O)(=O)NC1CCC(C(=O)Nc2ccc(-n3ccc4ccccc43)cc2)CC1 (stereo not shown) [Compound I-76]
1.8 nM	28 nM	CC(C)(C)S(=O)(=O)NC1CCC(C(=O)Nc2ccc(-n3cccn3)cc2)CC1 (stereo not shown) [Compound I-77]
0.59 nM	25 nM	CC(C)(C)S(=O)(=O)NC1CCC(C(=O)Nc2ccc(-c3csnn3)cc2)CC1 (stereo not shown) [Compound I-79]
0.61 nM	29 nM	CC(C)(C)S(=O)(=O)NC1CCC(C(=O)Nc2ccc(Nc3ccccc3)cc2)CC1 (stereo not shown) [Compound I-83]
1.3 nM	25 nM	CC(C)(C)S(=O)(=O)NC1CCC(C(=O)Nc2ccc(-n3ncnn3)cc2)CC1 (stereo not shown) [Compound I-84]
3.4 nM	100 nM	CC(C)(C)S(=O)(=O)NC1CCC(C(=O)Nc2ccc(N(CCO)CCO)cc2)CC1 (stereo not shown) [Compound I-86]
0.66 nM	21 nM	COC(=O)CCCc1ccc(NC(=O)C2CCC(NS(=O)(=O)C(C)(C)C)CC2)cc1 (stereo not shown) [Compound I-87]
2.8 nM	50 nM	CC(C)(C)S(=O)(=O)NC1CCC(C(=O)Nc2ccc(N3CCC(O)C3)cc2)CC1 (stereo not shown) [Compound I-90]
7 nM	61 nM	CCCCc1ccc(NC(=O)c2ccc(N[S+]([O-])C(C)(C)Cl)cc2)cc1 (stereo not shown) [Compound I-92]
3.9 nM	38 nM	CCCCc1ccc(NC(=O)c2ccc(N[S+]([O-])C(C)(C)C)cc2)cc1 (stereo not shown) [Compound I-101]
1.7 nM	14 nM	CCCCc1ccc(NC(=O)c2ccc(NS(=O)(=O)C(C)(C)C)cc2)cc1 [Compound I-102]
6.4 nM	29 nM	CCCCc1ccc(NC(=O)c2ccc(NS(=O)(=O)C(C)(C)Cl)cc2)cc1 [Compound I-106]
1.2 nM	3.2 nM	CCCCc1ccc(NC(=O)CCCCNS(=O)(=O)C(C)(C)CC)cc1 [Compound I-109]
4.3 nM	13.6 nM	CCCCc1ccc(NC(=O)CCCCNS(=O)(=O)CC(C)C)cc1 [Compound I-110]
1.8 nM	6.1 nM	CCCCc1ccc(NC(=O)CCCCNS(=O)(=O)C(C)CC)cc1 (stereo not shown) [Compound I-111]
7 nM	30 nM	CCCCc1ccc(NC(=S)CCCCNS(=O)(=O)CC(C)C)cc1 [Compound I-114]
1.2 nM	11 nM	CCCCOc1ccc(NC(=O)CCCCNS(=O)(=O)C(C)CC)cc1 (stereo not shown) [Compound I-116]
2.8 nM	–	CC(C)(C)S(=O)(=O)NC1CCC(C(=O)Nc2ccc(-c3ccc(-c4ccccc4)cc3)cc2)CC1 (stereo not shown) [Compound I-136]
